Reference: patent US11504371B2, “Quinazolines compound, preparation method therefor and application thereof” (Beijing Normal University, priority 2017, dated 2022)
Several values for one entry are separate records, joined by “and”; a condition that tells them apart may be missing. Equal entries are not always repeated. Entries after “also recorded” stand apart in the source; their conditions may differ. Marks after values point to notes of the source that are not given here.

Legend:
[1] = system: human hepatoma cell line (HepG2); assay: MTT assay, tumor cell proliferation inhibition, HepG2; format: cell-based; settings: Homo sapiens, 72 h, read-out: Tumor inhibition rate (IC50)
[2] = system: human neuroblastoma cell line (SH-SY5Y); assay: MTT assay, tumor cell proliferation inhibition, SH-SY5Y; format: cell-based; settings: Homo sapiens, SH-SY5Y, 72 h, read-out: Tumor inhibition rate (IC50)
[3] = system: human lung cancer cell line (A549); assay: MTT assay, tumor cell proliferation inhibition, A549; format: cell-based
[4] = system: human breast cancer cell line (MCF-7); assay: MTT assay, tumor cell proliferation inhibition, MCF-7; format: cell-based; settings: Homo sapiens, MCF7; MCF-7, MTT, 72 h; read-out: Tumor inhibition rate (IC50)
[5] = system: human prostate cancer cell line (DU145); assay: MTT assay, tumor cell proliferation inhibition, DU145; format: cell-based; settings: Homo sapiens, DU-145; DU145, MTT, 72 h; read-out: Tumor inhibition rate (IC50)
A549 cells = assay: Cell cycle experiment (PI staining, flow cytometer); format: cell-based, human; settings: for Cell proportion, G0/G1 / Cell proportion, G2/M / Cell proportion, S: 48 h
Protocol: Experiment procedure: A549 cells in logarithmic growth phase (purchased from the Cancer Hospital of Chinese Academy of Medical Sciences) were seeded into 6-well cell culture plates, adjusted to 5×10^5 cells per well, and cultured in an incubator at 37° C., 5% CO2, and saturated humidity for 24 h. The used medium was discarded. The cells were treated with the target compounds in different concentrations for 48 h, and grouped to an administration group and a control group (non-administered). The cells were digested with 0.25% trypsin to form a single cell suspension, centrifuged at 1500 r/min for 5 min. The supernatant was discarded, and the cells were collected. The cells were washed twice with precooled PBS buffer, centrifuged at 1500 r/min for 5 min, added to 5 mL of precooled 70% ethanol, and placed at 4° C. for at least 24 h. After centrifugation, the supernatant was discarded, and the cells were washed twice with PBS and collected by centrifugation. The cells were suspended in 400 μL PBS, added with 30 μL of RNaseA (purchased from Corning Inc., USA) at the concentrations from 1 mg/mL to 50 μg/mL, and incubated at 37° C. for 30 min. The centrifuge tube was then inserted into an ice bath to stop digestion. After the tube was cooled, 50 μL of PI staining solution (500 μg/mL) (purchased from Corning Inc., USA) was added to a final concentration of 50 μg/mL. The tube was immersed in an ice bath to perform straining in the dark for 30 min-40 min, filtered through a 300 mesh nylon mesh, and tested by flow cytometer (FACS Vantage SE: BD, USA).

cell membrane = assay: Cell membrane permeability test (Hoechst 33342 fluorescence); format: cell-based; settings: Hoechst 33342 fluorescence observation
From the text: One of the anilino polyethylene glycol ether cycloquinazoline substituted with a substituted arylmethyl heteroatomic group of formula (I), N-(4-((4-nitrophenyl)methoxy)phenyl)-6,7-(benzo-9-crown-3)-4-quinazolinamine, is studied by cell membrane permeability test. […] As the concentration of the target compound increases, the permeability is improved and the cells undergo apoptosis.

cells A549 = assay: Intracellular reactive oxygen species (fluorescence spectrometer); format: cell-based, human; settings: A549 after treatment
From the text: A part of the compound of anilino polyethylene glycol ether cycloquinazoline substituted with a substituted arylmethyl heteroatomic group represented by formula (I) are studied by detecting cell mitochondrial membrane potential and intracellular reactive oxygen species.

A549 cancer cells = assay: Nude mice bearing A549 cancer cells; format: in vivo
Protocol: In the present invention, the antitumor activity was evaluated by intraperitoneal injection to nude mice bearing different tumors, for compounds 3 (N-(4-((4-nitrophenyl)methoxy)phenyl)-6,7-(benzo-9-crown-3)-4-quinazolinamine) and 23 (compounds No. are shown in Table 1) (N-(3-((4-trifluoromethylphenyl)methoxy)phenyl)-6,7-(benzo-12-crown-4)-4-quinazolinamine) of formula (I).
Firstly, a tumor-bearing nude mouse model was established. 0.2-1 mL of cell suspension was inoculated subcutaneously into the left lower limb of nude mice, and the drug was administered when the tumor volume reached about 100 mm^3. Then, grouping and administration were performed; the nude mice (5 mice in each group) were randomly divided into several groups, such as ultra-pure water control group (blank), positive drug control group, and different dosage treatment groups. The nude mice in each group were administered continuously for 40 days. The nude mice were weighted every other day during the administration. Tumor volumes were measured and calculated. Then tumor growth curve, tumor inhibition curve (see FIGS. 1 and 3) and weight change curve (see FIGS. 2 and 4) were drawn. […]. Among those, docetaxel suffers from high cumulative neurotoxic toxicity and drug resistance although it has the best effect. Comparing to docetaxel, compound 23 has a much lower toxicity and drug resistance, and thus has a great development prospect. […]

## O=[N+]([O-])c1ccc(COc2ccc(Nc3ncnc4cc5c(cc34)OCCOCCO5)cc2)cc1 [Compound 3, N-(4-((4-nitrophenyl)methoxy)phenyl)-6,7-(benzo-9-crown-3)-4-quinazolinamine]
[1]
  IC50: > 100 µM
[2]
  IC50: 55.2 µM
[3]; Homo sapiens, A549, MTT, 72 h, read-out: Tumor inhibition rate (IC50)
  IC50: 6.62 µM
[3]; MTT, summary of Table 1
  inhibitory activity on A549 (in words): strong specific inhibitory activity
[4]
  IC50: 39.7 µM
[5]
  IC50: > 100 µM
A549 cells; A549, 0-40 μM
  cell cycle block (in words): can block A549 in G0/G1 phase
A549 cells; A549, 5 μM
  Cell proportion, G0/G1: 84.51 ± 0.32 ^a %
  Cell proportion, G2/M: 3.06 ± 0.12 ^ %
  Cell proportion, S: 12.42 ± 0.10%
A549 cells; A549, 10 μM
  Cell proportion, G0/G1: 85.58 ± 0.44 ^a %
  Cell proportion, G2/M: 3.05 ± 0.19 ^ %
  Cell proportion, S: 11.39 ± 0.64%
A549 cells; A549, 20 μM
  Cell proportion, G0/G1: 87.23 ± 0.31 ^a %
  Cell proportion, G2/M: 1.41 ± 0.05 ^a %
  Cell proportion, S: 11.68 ± 0.26%
A549 cells; A549, 40 μM
  Cell proportion, G0/G1: 90.08% and 90.08 ± 0.62 ^a %
  Cell proportion, G2/M: 2.04 ± 0.14 ^a %
  Cell proportion, S: 7.90 ± 0.50 ^a %
Cell membrane
  effect on cell membrane permeability: can increase the permeability of the cell membrane
Cells A549
  intracellular reactive oxygen species (ROS): increased intracellular reactive oxygen species (ROS) and apoptosis
A549 cancer cells; 60 mg/Kg, FIG. 1
  tumor inhibition: significant inhibited
A549 cancer cells; 60 mg/Kg, FIG. 2
  body weight: not decreased significantly
A549 cancer cells; nude mice bearing A549, intraperitoneal injection
  tumor inhibitory effect (tumor volume, FIG. 1): remarkable tumor inhibitory effect; also recorded: high inhibitory effect
A549 cancer cells; same dose 45 mg/Kg, FIG. 1
  inhibitory activity against A549 compared with gefitinib: significantly higher
